Source: US9005969B2, “Generation of novel bone forming cells (monoosteophils) from LL-37 treated monocytes” (City of Hope, priority 2010, dated 2015)

B1: M-CSF: Recombinant human M-CSF, produces macrophage 2 (Mφ2) (protein, UniProt P09603 33-554, looked up)
Macrophage colony-stimulating …: EEVSEYCSHMIGSGHLQSLQRLIDSQMETSCQITFEFVDQEQLKDPVCYLKKAFLLVQDIMEDTMRFRDNTPNAIAIVQLQELSLRLKSCFTKDYEEHDKACVRTFYETPLQLLEKVKNVFNETKNLLDKDWNIFSKNCNNSFAECSSQDVVTKPDCNCLYPKAIPSSDPASVSPHQPLAPSMAPVAGLTWEDSEGTEGSSLLPGEQPLHTVDPGSAKQRPPRSTCQSFEPPETPVVKDSTIGGSPQPRPSVGAFNPGMEDILDSAMGTNWVPEEASGEASEIPVPQGTELSPSRPGGGSMQTEPARPSNFLSASSPLPASAKGQQPADVTGTALPRVGPVRPTGQDWNHTPQKTDHPSALLRDPPEPGSPRISSLRPQGLSNPSTLSAQPQLSRSHSSGSVLPLGELEGRRSTRDRRSPAEPEGGPASEGAARPLPRFNSVPLTDTGHERQSEGSFSPQLQESVFHLLVPSVILVLLAVGGLLFYRWRRRSHQEPQRADSPLEQPEGSPLTQDDRQVELPV

Legend:
monocytes [1] = assay: Cytokine multiplex analysis of supernatants of differentiated monocytes; assay type: cell-based, human; design: GM-CSF release / MIP-1α release / MIP-1β release / MIG release / RANTES release / MCP-1 release / IL-2R release / VEGF release / G-CSF release / HGF release / FGF-Basic release / IL-4 release / IL-7 release / IFN-α release / IFN-γ release: unit not given here; conditions: for FGF-Basic release / G-CSF release / HGF release / IFN-α release / IFN-γ release / IL-2R release / IL-4 release / IL-7 release / MCP-1 release / MIG release / MIP-1α release / MIP-1β release / RANTES release / VEGF release / GM-CSF release: supernatant, monocytes differentiated 6 days, Mean ± SEM
From the text: (§1) This study was approved by the Institutional Human Subject's Review Board (City of Hope National Medical Center). Peripheral blood mononuclear cells (PBMCs) were isolated from citrated blood by centrifugation over Ficoll-Paque Plus (GE healthcare biosciences, Pittsburgh, Pa., USA) density gradient. Monocytes were separated using EasySep® Human Monocyte Enrichment Kit (StemCell Technologies Inc, Vancouver, Canada) from PBMCs. The purified monocytes were stained with anti-CD14-FITC and checked by using flow cytometry FACSCanton II. Monocytes with >95% purity were suspended at 1×10^6 cells/mL in RPMI 1640 medium supplement with 10% FBS (FBS contained <5 pg/100 mL LPS).
(§2) After isolation of monocytes as described in the examples above, monocytes were treated with serial dose of LL-37 (0.625 μM, 1.25 μM, 2.5 μM, 5 μM, or 10 μM) for differentiation for 3 days, 6 days, 14 days or more. After incubating for 6 days, cultures were fed every 2 days by removing half of the supernatant and adding fresh medium. For macrophage differentiation, monocytes were treated with medium only (Falzoni et al. 1995), with 100 ng/mL LPS (Palucka et al. 1999), 10 ng/mL GM-CSF (macrophage 1, Mφ1), or 50 ng/mL M-CSF (macrophage 2, Mφ2) for 6 days (Verreck et al. 2004). Monocyte-derived DCs were generated with 1,000 U/mL GM-CSF and 500 units/mL IL-4 (Verreck et al. 2004) or GM-CSF and 1000 U/mL IFNα (Tosello et al. 2009). Osteoclasts were differentiated from monocytes in the presence of RANKL and M-CSF (both at 25 ng/mL) (Sorensen et al. 2007).
Fresh monocytes were plated at 1×10^6 cells/mL in RPMI 1640 medium containing 10% FBS in 48-well plates and incubated with medium only, LL-37, LPS, GM-CSF, M-CSF, M-CSF/RANKL for 6 days, or/and 14 days and 21 days. Supernatant was collected and analyzed using the Human Cytokine 30-Plex antibody bead kit from Biosource International Inc., including IL-1-β, IL-1 ra, IL-2, IL-2R, IL-4, IL-5, IL-6, IL-7, IL-8, IL-10, IL-12, IL-13, IL-15, IL-17, TNFα, IFNα, IFNγ, G-CSF, GM-CSF, MIP-1α, MIP-1β, MIG, RANTES, eotaxin, MCP-1, IP-10, VEGF, HGF, FGF-basic, and […]. Cytokine concentrations were calculated using Bio-Plex Manager 3.0 software with an eight-parameter, curve-fitting algorithm applied for standard curve calculations (Zhang et al. 2008b).

monocytes [2] = assay: Bone resorption assay on BioCoat Osteologic Discs (phase contrast, SEM, von Kossa); assay type: cell-based, human
Description: The resorbing activity was evaluated by using BioCoat™ Osteologic™ Discs purchased from BD Biosciences as a mineral matter in 24-well plate. […] The plates were washed by rinsing distilled water and pit formation was observed by light microscopy (Yuasa et al. 2007) and scanning electron microscopy (SEM). […]
BioCoat™ Osteologic™ Discs fixed in 2.5% glutaraldehyde in 0.1 M phosphate buffer, pH 7.2 (buffer A) for 1 hour from bone resorption assay were washed three times in buffer A, postfixed with 1% osmium tetroxide in buffer A, then dehydrated in graded ethanol. The 100% ethanol solution was then replaced by propylene oxide, and the cells were embedded in Eponate. Thin sections were stained with uranyl acetate and lead citrate and examined with a FEI TECNAI G2 electron microscope.
Discs were photographed using phase contrast microscopy (magnification 200×).

monocytes [3] = assay: Phagocytosis of fluorescent labeled latex beads; assay type: cell-based, human; conditions: 6-day differentiated cells, beads 1:500, 1 hour at 37° C.
Description: 6-day LL-37-, medium-, LPS-, GM-CSF-, and M-CSF-differentiated monocytes (1×10^6/mL) in tissue culture medium supplemented with 10% FBS in a 24-well plate were mixed with fluorescent labeled latex beads at a multiplicity ratio of 1:500, and incubated for 1 hour at 37° C. After being washed three times, cells were analyzed using FACSCanton II and Flowjo software.

monocytes [4] = assay: Flow cytometry of cell surface markers; assay type: cell-based, human; conditions: 6 days
From the text: For cell surface staining, cells were washed with PBS, blocked with 10% human serum in PBS, stained with isotype controls and antibodies described in the figures, washed 3 times with 1% BSA PBS, and analyzed with a FACSCanton II. For intracellular staining, cells were washed with PBS, fixed with 1% paraformaldehyde in PBS, permeabilized in PBS buffer containing 0.1% saponin (Sigma-Aldrich) and 2% BSA, and stained with primary isotype controls and antibodies shown in the figures. After washing with PBS containing 1% BSA and 0.1% saponin, cells were stained with secondary Alexa 488 conjugated antibodies. Stained cells were assessed with a FACSCanton II cytometer, and analyzed using Flowjo software.

monocytes [5] = conditions: cited from earlier work
monocytes [6] = assay: Monocyte differentiation and survival (morphology, cell number); assay type: cell-based, human
From the text: as §1
Negatively isolated monocytes at the concentration of 1×10^6/mL were incubated in […] medium with 10% FBS in the presence or absence of LL-37. […] The maximum effect occurred at the dose of 5 μM LL-37 after which higher doses (≧10 μM) led to decreased cell numbers due to toxicity of LL-37 >10 μM (Zhang et al. 2008a; Johansson et al. 1998). After 14 days, the cell number of untreated controls decreased further, but the LL-37-differentiated monocytes survived with an apparent further increase in the diameter of the round adherent cells. […] There was no evidence of cell-cell fusion in the creation of giant cells. Together these analyses indicate that LL-37 can progressively differentiate monocytes into large round adherent cells at early times with giant cells and irregular shaped cells appearing at later times.
as §2
Monocytes were plated in culture media and treated with LL-37 (dose shown in the figures), LPS (100 ng/mL), GM-CSF (10 ng/mL), M-CSF (50 ng/mL), GM-CSF (1,000 U/mL)/IL-4 (500 units/mL), GM-CSF (1,000 U/mL)/IFNα (1,000 U/mL), or MCSF/RANKL (both at 25 ng/mL) and photographed with the Leica DMI 3000B (Leica Microsystems Inc, Bonnockburn, Ill. 60015) inverted microscope.

| Molecule | FGF-Basic release (monocytes [1]) | G-CSF release (monocytes [1]) | HGF release (monocytes [1]) | IFN-α release (monocytes [1]) | IFN-γ release (monocytes [1]) | IL-2R release (monocytes [1]) | IL-4 release (monocytes [1]) | IL-7 release (monocytes [1]) | MCP-1 release (monocytes [1]) | MIG release (monocytes [1]) | MIP-1α release (monocytes [1]) | MIP-1β release (monocytes [1]) | RANTES release (monocytes [1]) | VEGF release (monocytes [1]) | GM-CSF release (monocytes [1]) | also measured |
| --- | --- | --- | --- | --- | --- | --- | --- | --- | --- | --- | --- | --- | --- | --- | --- | --- |
| GM-CSF: Recombinant human GM-CSF, produces macrophage 1 (Mφ1) [reference compound] | 10.85 ± 0.22 | 74.85 ± 2.60 | 505.18 ± 118.32 | 14.33 ± 1.27 | 13.5 ± 0.47 | 47.16 ± 1.23 | 11.82 ± 0.98 | 26.89 ± 0.16 | 15362.1 ± 7902.6 | 17.21 ± 1.30 | 72.20 ± 6.18 | 70.42 ± 19.71 | 5.42 ± 1.85 | 15.88 ± 2.99 |  |  |
| LL-37 | 10.28 ± 0.66 | 51.79 ± 3.38 | 772.94 ± 126.71 | 9.93 ± 0.14 | 12.13 ± 0.88 | 32.38 ± 7.04 | 7.16 ± 0.59 | 11.93 ± 1.96 | 7720.3 ± 972.2 | 7.16 ± 1.31 | 53.17 ± 12.97 | 72.41 ± 9.86 | 10.24 ± 3.87 | 3.88 ± 0.41 | 3.96 ± 0.30 | structures formed on Osteologic Discs (monocytes [2]; 3 weeks, cells removed by bleach, LL-37 5 μM, M-CSF/RANKL both 25 ng/mL): formed refractile specks on the discs instead of classical absorption pits; von Kossa staining of granules (mineralization) (monocytes [2]; 5 weeks of co-culture): positive von Kossa staining; phagocytic function (monocytes [3]): retain their phagocytic function; expression of CD163, DC-SIGN, CD14 versus other macrophage lineages (monocytes [4]): lower levels; IL-1ra, IL-10, IL-12, IP-10, GM-CSF production in response to LPS (monocytes [1]; 6-day cells, 100 ng/mL LPS 18 hours, versus M-CSF/RANKL-differentiated monocytes): increased production; IL-1ra release versus other macrophage lineages (monocytes [1]; 6 days): highest levels; IL-1β release versus other macrophage lineages (monocytes [1]; 6 days): lowest level; IL-6 release versus macrophages generated by the other methods (monocytes [1]; 6 days): significantly less; IP-10 release versus macrophages generated by the other methods (monocytes [1]; 6 days): increased; IL-1ra release versus osteoclasts (monocytes [1]; all time points analyzed): higher levels; IL-1β, IL-6, MCP-1 release versus osteoclasts (monocytes [1]; all time points analyzed): lower levels; toxicity of LL-37 (monocytes [5]): > 10 µM; doses that led to decreased cell numbers (monocytes [6]): ≥ 10 µM; cell number versus untreated controls (monocytes [6]; 5 μM, 6 days): significantly higher than untreated controls; cell morphology (monocytes [6]; 6 days of treatment): differentiated into large round adherent cells; survival in terms of cell numbers (monocytes [6]; after 28 days, versus M-CSF/RANKL-derived osteoclasts): survive better than M-CSF/RANKL-derived osteoclasts; dose of maximum effect (monocytes [6]; monocyte differentiation and cell number): 5 µM |
| B1 | 11.54 ± 0.31 | 75.71 ± 5.78 | 664.33 ± 112.85 | 19.83 ± 1.19 | 14.67 ± 1.06 | 44.62 ± 4.89 | 11.07 ± 0.95 | 24.83 ± 1.68 | 34236.5 ± 1606.8 | 15.39 ± 2.01 | 41.62 ± 2.63 | 47.26 ± 1.46 | 10.19 ± 1.38 | 22.12 ± 1.39 | 25.2 ± 5.51 |  |
